Reference: ChEMBL document CHEMBL1201862, “PubChem BioAssay data set” (2004)
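48-hour exposure; five concentrations; linearly interpolated endpoints. GI50 = concentration required for 50% inhibition of growth.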 Activity calls are given as the source filed them. Cut-off read from the data, not from the text of the source: active = GI50 up to about 1.1 µM and inactive = higher.

Key:
Assay in all cases: NCI tumour cell line growth inhibition, 48 h
DMS-273 = system: DMS-273
NCI-H23 = system: NCI-H23
UO-31 = system: UO-31
IGROV-1 = system: IGROV-1
UACC-62 = system: UACC-62
A498 = system: A498
RPMI-8226 = system: RPMI-8226
NCI-H522 = system: NCI-H522
SK-OV-3 = system: SK-OV-3
TK-10 = system: TK-10
KM-20L2 = system: KM-20L2
SK-MEL-5 = system: SK-MEL-5
SF-295 = system: SF-295
UACC-257 = system: UACC-257
CAKI-1 = system: CAKI-1
RXF 631 = system: RXF 631
LOX IMVI = system: LOX IMVI
SW-620 = system: SW-620
SNB-75 = system: SNB-75
COLO 205 = system: COLO 205
SK-MEL-2 = system: SK-MEL-2
U-251 = system: U-251
DLD-1 = system: DLD-1
MOLT-4 = system: MOLT-4
OVCAR-5 = system: OVCAR-5
HCT-15 = system: HCT-15
NCI-H460 = system: NCI-H460
OVCAR-3 = system: OVCAR-3
HCC 2998 = system: HCC 2998
SF-268 = system: SF-268
HT-29 = system: HT-29
NCI-H226 = system: NCI-H226
SN12C = system: SN12C
DMS-114 = system: DMS-114
SF-539 = system: SF-539
CCRF-CEM = system: CCRF-CEM
SK-MEL-28 = system: SK-MEL-28
HL-60 = system: HL-60
SNB-19 = system: SNB-19
HOP-92 = system: HOP-92
KM12 = system: KM12
EKVX = system: EKVX
A549 = system: A549
786-0 = system: 786-0
Malme-3M = system: Malme-3M
SNB-78 = system: SNB-78
OVCAR-8 = system: OVCAR-8
HOP-18 = system: HOP-18
K562 = system: K562
HOP-62 = system: HOP-62
ACHN = system: ACHN
RXF 393 = system: RXF 393
HCT-116 = system: HCT-116
M19-MEL = system: M19-MEL
SR = system: SR
M14 = system: M14
OVCAR-4 = system: OVCAR-4
LXFL 529 = system: LXFL 529
XF498 = system: XF498

Clc1ccc(SCCSCCCCCCCCCCSCCSc2ccc(Cl)cc2)cc1
GI50 (DMS-273): > 100 µM (inactive)
GI50 (NCI-H23): > 100 µM (inactive)
GI50 (UO-31): > 100 µM (inactive)
GI50 (IGROV-1): > 100 µM (inactive)
GI50 (UACC-62): > 100 µM (inactive)
GI50 (A498): > 100 µM (inactive)
GI50 (RPMI-8226): > 100 µM (inactive)
GI50 (NCI-H522): > 100 µM (inactive)
GI50 (SK-OV-3): > 100 µM (inactive)
GI50 (TK-10): > 100 µM (inactive)
GI50 (KM-20L2): > 100 µM (inactive)
GI50 (SK-MEL-5): > 100 µM (inactive)
GI50 (SF-295): > 100 µM (inactive)
GI50 (UACC-257): > 100 µM (inactive)
GI50 (CAKI-1): > 100 µM (inactive)
GI50 (RXF 631): > 100 µM (inactive)
GI50 (LOX IMVI): > 100 µM (inactive)
GI50 (SW-620): > 100 µM (inactive)
GI50 (SNB-75): > 100 µM (inactive)
GI50 (COLO 205): > 100 µM (inactive)
GI50 (SK-MEL-2): > 100 µM (inactive)
GI50 (U-251): > 100 µM (inactive)
GI50 (DLD-1): > 100 µM (inactive)
GI50 (MOLT-4): > 100 µM (inactive)
GI50 (OVCAR-5): > 100 µM (inactive)
GI50 (HCT-15): > 100 µM
GI50 (NCI-H460): > 100 µM (inactive)
GI50 (OVCAR-3): > 100 µM (inactive)
GI50 (HCC 2998): > 100 µM (inactive)
GI50 (SF-268): > 100 µM (inactive)
GI50 (HT-29): > 100 µM (inactive)
GI50 (NCI-H226): > 100 µM (inactive)
GI50 (SN12C): > 100 µM (inactive)
GI50 (DMS-114): > 100 µM (inactive)
GI50 (SF-539): > 100 µM (inactive)
GI50 (CCRF-CEM): > 100 µM (inactive)
GI50 (SK-MEL-28): > 100 µM (inactive)
GI50 (HL-60): > 100 µM (inactive)
GI50 (SNB-19): > 100 µM (inactive)
GI50 (HOP-92): > 100 µM (inactive)
GI50 (KM12): > 100 µM (inactive)
GI50 (EKVX): > 100 µM (inactive)
GI50 (A549): > 100 µM (inactive)
GI50 (786-0): > 100 µM (inactive)
GI50 (Malme-3M): > 100 µM (inactive)
GI50 (SNB-78): > 100 µM (inactive)
GI50 (OVCAR-8): > 100 µM (inactive)
GI50 (HOP-18): > 100 µM (inactive)
GI50 (K562): > 100 µM (inactive)
GI50 (HOP-62): > 100 µM (inactive)
GI50 (ACHN): > 100 µM (inactive)
GI50 (RXF 393): > 100 µM (inactive)

C#CC[C@]12CC(=O)CC[C@H]1CC(=O)C2
GI50 (DMS-273): > 100 µM (inactive)
GI50 (UO-31): > 100 µM (inactive)
GI50 (IGROV-1): > 100 µM (inactive)
GI50 (UACC-62): > 100 µM (inactive)
GI50 (A498): > 100 µM (inactive)
GI50 (RPMI-8226): > 100 µM (inactive)
GI50 (NCI-H522): > 100 µM (inactive)
GI50 (SK-OV-3): > 100 µM (inactive)
GI50 (TK-10): > 100 µM (inactive)
GI50 (KM-20L2): > 100 µM (inactive)
GI50 (SK-MEL-5): > 100 µM (inactive)
GI50 (UACC-257): > 100 µM (inactive)
GI50 (CAKI-1): > 100 µM (inactive)
GI50 (RXF 631): > 100 µM (inactive)
GI50 (SW-620): > 100 µM (inactive)
GI50 (SNB-75): > 100 µM (inactive)
GI50 (COLO 205): > 100 µM (inactive)
GI50 (SK-MEL-2): > 100 µM (inactive)
GI50 (U-251): > 100 µM (inactive)
GI50 (DLD-1): > 100 µM (inactive)
GI50 (MOLT-4): > 100 µM (inactive)
GI50 (HCT-15): > 100 µM
GI50 (NCI-H460): > 100 µM (inactive)
GI50 (OVCAR-3): > 100 µM (inactive)
GI50 (HCC 2998): > 100 µM (inactive)
GI50 (SF-268): > 100 µM (inactive)
GI50 (NCI-H226): > 100 µM (inactive)
GI50 (SN12C): > 100 µM (inactive)
GI50 (SF-539): > 100 µM (inactive)
GI50 (CCRF-CEM): > 100 µM (inactive)
GI50 (SK-MEL-28): > 100 µM (inactive)
GI50 (HL-60): > 100 µM (inactive)
GI50 (SNB-19): > 100 µM (inactive)
GI50 (HCT-116): > 100 µM (inactive)
GI50 (KM12): > 100 µM (inactive)
GI50 (M19-MEL): > 100 µM (inactive)
GI50 (A549): > 100 µM (inactive)
GI50 (786-0): > 100 µM (inactive)
GI50 (Malme-3M): > 100 µM (inactive)
GI50 (SNB-78): > 100 µM (inactive)
GI50 (OVCAR-8): > 100 µM (inactive)
GI50 (HOP-18): > 100 µM (inactive)
GI50 (SR): > 100 µM (inactive)
GI50 (M14): > 100 µM (inactive)
GI50 (K562): > 100 µM (inactive)
GI50 (HOP-62): > 100 µM (inactive)
GI50 (OVCAR-4): > 100 µM (inactive)
GI50 (ACHN): > 100 µM (inactive)
GI50 (RXF 393): > 100 µM (inactive)
GI50 (LXFL 529): > 100 µM (inactive)

COc1cccc(NC(=O)CC(=O)n2nc(C)c(/N=N/c3ccccc3)c2C)c1
GI50 (DMS-273): > 100 µM (inactive)
GI50 (NCI-H23): > 100 µM (inactive)
GI50 (UO-31): 65.6 µM (inactive)
GI50 (IGROV-1): > 100 µM (inactive)
GI50 (UACC-62): 79.1 µM (inactive)
GI50 (A498): 76 µM (inactive)
GI50 (RPMI-8226): > 100 µM (inactive)
GI50 (NCI-H522): > 100 µM (inactive)
GI50 (SK-OV-3): > 100 µM (inactive)
GI50 (TK-10): 85.7 µM (inactive)
GI50 (XF498): 56.9 µM (inactive)
GI50 (SK-MEL-5): 76.4 µM (inactive)
GI50 (SF-295): > 100 µM (inactive)
GI50 (UACC-257): > 100 µM (inactive)
GI50 (CAKI-1): > 100 µM (inactive)
GI50 (RXF 631): > 100 µM (inactive)
GI50 (LOX IMVI): 83.6 µM (inactive)
GI50 (SW-620): > 100 µM (inactive)
GI50 (SNB-75): 47.8 µM (inactive)
GI50 (COLO 205): > 100 µM (inactive)
GI50 (U-251): > 100 µM (inactive)
GI50 (DLD-1): > 100 µM (inactive)
GI50 (MOLT-4): 69.2 µM (inactive)
GI50 (OVCAR-3): > 100 µM (inactive)
GI50 (HCC 2998): > 100 µM (inactive)
GI50 (SF-268): > 100 µM (inactive)
GI50 (HT-29): > 100 µM (inactive)
GI50 (NCI-H226): 28.5 µM (inactive)
GI50 (SN12C): > 100 µM (inactive)
GI50 (DMS-114): > 100 µM (inactive)
GI50 (SF-539): > 100 µM (inactive)
GI50 (SK-MEL-28): > 100 µM (inactive)
GI50 (SNB-19): > 100 µM (inactive)
GI50 (HCT-116): > 100 µM (inactive)
GI50 (HOP-92): > 100 µM (inactive)
GI50 (KM12): > 100 µM (inactive)
GI50 (EKVX): 58.6 µM (inactive)
GI50 (M19-MEL): > 100 µM (inactive)
GI50 (A549): > 100 µM (inactive)
GI50 (786-0): > 100 µM (inactive)
GI50 (Malme-3M): > 100 µM (inactive)
GI50 (SNB-78): > 100 µM (inactive)
GI50 (OVCAR-8): > 100 µM (inactive)
GI50 (HOP-18): 12 µM (inactive)
GI50 (SR): 78.7 µM (inactive)
GI50 (M14): > 100 µM (inactive)
GI50 (HOP-62): > 100 µM (inactive)
GI50 (OVCAR-4): > 100 µM (inactive)
GI50 (ACHN): > 100 µM (inactive)
GI50 (LXFL 529): > 100 µM (inactive)
